Assay results as given in patent EP2929785A1, “A PLA inhibitor for inhibition of fat absorption” (PAT GmbH, priority 2014, dated 2015).

Experiments:
cytosolic LPC = assay: Cytosolic LPC concentration in HepG2 cells; type: cell-based, human
Procedure: LPC concentration in cytosolic supernatants was measured as previously described (Kishimoto T et al. Clin. Biochem. 2002; 35: 411-416).

iPLA2ß = target: T1, iPLA2ß (Homo sapiens, UniProt O60733); assay: PLA2 activity in DRM-PM fractions of HepG2 cells; type: biochemical; conditions: DRM-PM fractions after 1-h treatment; dose-dependent
T1 construct: PLA2 activity in DRM-PM fractions isolated from HepG2 cells; endogenous in cells; host or cells: HepG2 (DRM-PM fraction)
T1 sequence (O60733 1-806): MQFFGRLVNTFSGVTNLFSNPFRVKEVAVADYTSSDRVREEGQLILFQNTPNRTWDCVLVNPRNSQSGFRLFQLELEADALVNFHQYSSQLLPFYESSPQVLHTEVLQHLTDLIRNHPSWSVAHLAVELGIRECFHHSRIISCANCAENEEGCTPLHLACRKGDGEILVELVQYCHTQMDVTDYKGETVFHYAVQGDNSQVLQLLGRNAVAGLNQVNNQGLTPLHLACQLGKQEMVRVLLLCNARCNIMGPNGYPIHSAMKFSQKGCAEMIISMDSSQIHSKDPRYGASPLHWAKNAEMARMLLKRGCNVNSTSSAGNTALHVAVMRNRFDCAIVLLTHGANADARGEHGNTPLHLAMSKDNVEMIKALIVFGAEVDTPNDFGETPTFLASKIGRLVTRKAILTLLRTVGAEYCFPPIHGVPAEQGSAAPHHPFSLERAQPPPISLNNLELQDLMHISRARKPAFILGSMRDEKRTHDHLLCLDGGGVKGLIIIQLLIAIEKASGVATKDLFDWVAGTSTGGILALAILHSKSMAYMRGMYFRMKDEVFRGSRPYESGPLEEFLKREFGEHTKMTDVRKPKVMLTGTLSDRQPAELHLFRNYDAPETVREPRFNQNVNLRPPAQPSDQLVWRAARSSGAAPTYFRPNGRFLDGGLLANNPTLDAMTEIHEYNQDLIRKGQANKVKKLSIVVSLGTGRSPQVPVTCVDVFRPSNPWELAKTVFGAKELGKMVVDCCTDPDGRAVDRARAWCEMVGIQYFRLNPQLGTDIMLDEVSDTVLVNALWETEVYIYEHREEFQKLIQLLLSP
Procedure: Detergent-resistant PM (DRM-PM) and non-DRM-PM fractions were isolated and characterized as previously described (Pohl J et al. Mol Biol Cell. 2005; 16: 24-31). Subcellular membrane fractions were prepared by centrifugation at 100,000 g for 1 h to obtain homogenate pellets. Nuclear extracts were obtained by centrifugation at 500 g for 5 min. Pellets were washed and resuspended in a buffer solution containing […] (pH 7.4), 100 mM NaCl, and 0.1 mM EDTA (Marzluff WF et al. Meth Cell Biol. 1987; 317-331)). The protein concentration was determined by the Bradford method (Bio- Rad, Munich, Germany).
PLA2 activity (µmoles LPC/mg protein/h) was determined by incubating samples with arachidonoyl thio-PC (62240; Cayman, Tallin, Estonia) for 1 h at 25°C in a Ca2+ -free buffer (Bhat MK et al. Biochim Biophys Act. 1993; 1166: 244-250). The reaction was terminated by adding 5,5-dithio-bis-2-nitrobenzoic acid and the absorbance at 405 nm was measured.

With “ursodeoxycholatelysophosphatidylethanolamide [UDCA-LPE]” the IC50 (cytosolic LPC; 30 min treatment (Fig. 7), read-out: suppression of cytosolic LPC (IC50)) was 47 µM, the “cytosolic LPC” value (cytosolic LPC; UDCA-LPE 50 µM (Fig. 6), before treatment 8.0 ± 1.3) was 3.5 ± 0.2 µmol/mg protein and the PLA2 activity (iPLA2ß) was “suppression of PLA2 activity”.
